Consider 29 molecules from patent US20230146395A1, “Substituted Pyrimidines and Uses Thereof” (Verge Analytics, Inc., priority 2020, published 2023).

Counter-ions that a name gives are not always drawn. A value given as a limit tells only on which side of the number the result lay.

T1 sequence (Q9Y2I7 whole entry): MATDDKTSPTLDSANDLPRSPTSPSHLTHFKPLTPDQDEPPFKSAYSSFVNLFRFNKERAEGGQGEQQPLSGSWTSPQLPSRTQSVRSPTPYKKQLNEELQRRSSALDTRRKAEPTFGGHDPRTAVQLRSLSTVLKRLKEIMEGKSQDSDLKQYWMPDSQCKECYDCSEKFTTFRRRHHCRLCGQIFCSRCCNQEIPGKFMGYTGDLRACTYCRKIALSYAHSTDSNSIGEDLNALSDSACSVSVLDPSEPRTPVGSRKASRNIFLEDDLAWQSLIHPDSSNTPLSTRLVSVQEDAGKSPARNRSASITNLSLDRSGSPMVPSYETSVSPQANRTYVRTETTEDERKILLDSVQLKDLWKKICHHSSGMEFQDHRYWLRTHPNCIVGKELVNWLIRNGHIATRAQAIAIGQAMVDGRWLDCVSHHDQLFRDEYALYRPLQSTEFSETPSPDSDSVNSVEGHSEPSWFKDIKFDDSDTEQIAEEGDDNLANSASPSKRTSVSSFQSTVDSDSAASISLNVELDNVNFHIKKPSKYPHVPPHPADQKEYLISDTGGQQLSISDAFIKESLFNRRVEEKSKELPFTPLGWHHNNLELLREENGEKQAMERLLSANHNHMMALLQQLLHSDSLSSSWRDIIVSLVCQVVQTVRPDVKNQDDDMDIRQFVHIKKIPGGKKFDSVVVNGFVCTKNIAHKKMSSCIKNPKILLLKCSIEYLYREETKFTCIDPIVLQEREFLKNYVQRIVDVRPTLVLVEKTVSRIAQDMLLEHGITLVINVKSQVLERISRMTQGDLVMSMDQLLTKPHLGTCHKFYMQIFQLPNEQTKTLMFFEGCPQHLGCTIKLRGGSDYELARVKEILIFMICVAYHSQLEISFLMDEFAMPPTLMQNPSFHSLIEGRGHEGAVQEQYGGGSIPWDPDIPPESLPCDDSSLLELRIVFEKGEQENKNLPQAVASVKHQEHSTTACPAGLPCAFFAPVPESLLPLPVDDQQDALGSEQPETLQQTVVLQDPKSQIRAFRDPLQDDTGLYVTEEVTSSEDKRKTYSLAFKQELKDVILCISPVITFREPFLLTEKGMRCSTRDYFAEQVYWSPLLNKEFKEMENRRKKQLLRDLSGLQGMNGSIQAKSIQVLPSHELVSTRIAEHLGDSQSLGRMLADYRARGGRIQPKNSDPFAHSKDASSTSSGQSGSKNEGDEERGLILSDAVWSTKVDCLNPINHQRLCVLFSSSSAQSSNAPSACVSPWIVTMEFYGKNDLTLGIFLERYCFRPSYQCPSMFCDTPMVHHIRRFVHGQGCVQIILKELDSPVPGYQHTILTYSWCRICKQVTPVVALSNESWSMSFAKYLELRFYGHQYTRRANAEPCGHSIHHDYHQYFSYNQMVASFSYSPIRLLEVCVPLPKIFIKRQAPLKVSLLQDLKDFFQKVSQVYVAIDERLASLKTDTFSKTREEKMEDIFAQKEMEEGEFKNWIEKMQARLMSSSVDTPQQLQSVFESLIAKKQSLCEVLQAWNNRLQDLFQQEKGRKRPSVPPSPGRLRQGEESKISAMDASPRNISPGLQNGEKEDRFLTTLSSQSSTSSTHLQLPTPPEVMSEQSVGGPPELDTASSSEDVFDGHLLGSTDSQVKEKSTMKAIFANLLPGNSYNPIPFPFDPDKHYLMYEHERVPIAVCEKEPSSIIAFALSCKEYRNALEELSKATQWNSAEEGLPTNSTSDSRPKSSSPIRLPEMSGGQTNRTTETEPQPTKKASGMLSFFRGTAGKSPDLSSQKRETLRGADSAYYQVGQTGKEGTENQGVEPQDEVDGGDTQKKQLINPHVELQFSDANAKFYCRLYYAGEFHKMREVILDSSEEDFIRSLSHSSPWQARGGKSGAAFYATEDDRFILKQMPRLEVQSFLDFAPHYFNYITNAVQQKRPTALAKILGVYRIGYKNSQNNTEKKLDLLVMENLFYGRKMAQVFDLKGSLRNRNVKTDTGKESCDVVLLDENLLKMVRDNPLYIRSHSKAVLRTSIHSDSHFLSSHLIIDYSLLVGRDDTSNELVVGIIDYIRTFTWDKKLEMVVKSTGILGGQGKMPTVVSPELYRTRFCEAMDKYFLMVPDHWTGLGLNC

The assay concerns the target T1, Full length human recombinant PIKFYVE (Homo sapiens, UniProt Q9Y2I7).
T1 construct: Full length human recombinant PIKFYVE; purchased Carna Biosciences (Kobe, Japan); host or cells: baculovirus expression system
Put plainly: Inhibition of PIKfyve (microfluidic electrophoresis kinase assay, PI3P/PS substrate). The format is biochemical. The note with it: 12 concentrations. The method, then:
Full length human recombinant PIKFYVE expressed in baculovirus expression system as N-terminal GST-fusion protein (265 kDa) was obtained from Carna Biosciences (Kobe, Japan). The kinase substrate was prepared by mixing and sonicating fluorescently-labeled phosphatidylinositol 3-phosphate (PI3P) with phospho-L-serine (PS) at a 1:10 ratio in 50 mM HEPES buffer pH 7.5.
The kinase reactions were assembled in 384-well plates (Greiner) in a total volume of […] as follows. Kinase protein was pre-diluted in an assay buffer comprising 25 mM HEPES, pH 7.5, 1 mM DTT, 2.5 mM MgCl2, and 2.5 mM MnCl2, and 0.005% Triton X-100, and dispensed into a 384-well plate (10 μL per well). Test compounds were serially pre-diluted in DMSO and added to the protein samples by acoustic dispensing (Labcyte Echo). The concentration of DMSO was equalized to 1% in all samples. All test compounds were tested at 12 concentrations. Apilimod was used as a reference compound and was tested in identical manner in each assay plate. Control samples (0%-inhibition, in the absence of inhibitor, DMSO only) and 100%-inhibition (in the absence of enzyme) were assembled in replicates of four and were used to calculate %-inhibition in the presence of compounds. The reactions were initiated by addition of 10 μL of 2×PI3P/PS substrate supplemented with ATP. The final concentration of enzyme was 2 nM, the final concentration of ATP was […], and the final concentration of PI3P/PS substrate was 1 μM (PI3P). The kinase reactions were allowed to proceed for 3 h at room temperature. Following incubation, the reactions were quenched by addition of […] of termination buffer (100 mM HEPES, pH 7.5, 0.01% Triton X-100, 20 mM EDTA). Terminated plates were analyzed on a microfluidic electrophoresis instrument (Caliper LabChip® 3000, Caliper Life Sciences/Perkin Elmer). The change in the relative fluorescence intensity of the PI(3)P substrate and PI(3,5)P product peaks was measured. The activity in each test sample was determined as the product to sum ratio (PSR): P/(S+P), where P is the peak height of the product, and S is the peak height of the substrate. Percent inhibition (Pinh) was determined using the following equation:
Pinh=(PSR0% inh−PSRcompound)/(PSR0% inh−PSR100% inh)*100
in which PSRcompound is the product/sum ratio in the presence of compound, PSR0% inh is the product/sum ratio in the absence of compound, and the PSR100% inh is the product/sum ratio in the absence of the enzyme.
Regarding `Cc1cccc(-c2ccn(-c3nc(N4CCOCC4)c4oc(-c5ncco5)cc4n3)n2)c1` [Compound 218, 4-morpholino-2-[3-(m-tolyl)pyrazol-1-yl]-6-oxazol-2-yl-furo[3,2-d]pyrimidine], the IC50 was found to be 9.1 nM.
With `C[C@@H](NC(=O)c1cc2nc(Nc3cc(-c4ccccc4)n[nH]3)nc(N3CCOCC3)c2o1)C1CC1` [Compound 64, (R)—N-(1-cyclopropylethyl)-4-morpholino-2-((5-phenyl-1H-pyrazol-3-yl)amino)furo[3,2-d]pyrimidine-6-carboxamide hydrochloride] the figure was 0.9 nM; with `c1ccc(-c2cc(Nc3nc(N4CCOCC4)c4oc(CN5CCCCC5)cc4n3)[nH]n2)cc1` [Compound 13], 545 nM; with `Cc1cccc(-c2ccn(-c3nc(N4CCOCC4)c4oc(-c5ccccn5)c(C)c4n3)n2)c1` [Compound 122, 7-methyl-4-morpholino-6-(pyridin-2-yl)-2-(3-(m-tolyl)-1H-pyrazol-1-yl)furo[3,2-d]pyrimidine], 12.7 nM.
`Cc1cccc(-c2cnn(-c3nc(N4CCOCC4)c4oc(C(=O)NCCS(C)(=O)=O)cc4n3)c2)c1` [Compound 150, N-(2-(methylsulfonyl)ethyl)-4-morpholino-2-(4-(m-tolyl)-1H-pyrazol-1-yl)furo[3,2-d]pyrimidine-6-carboxamide]: the IC50 was determined as 103 nM.
With `Cc1cccc(-c2cnn(-c3nc(N4CCOCC4)c4oc(-c5cc(C)n(CCNC(=O)CCl)n5)cc4n3)c2)c1` [Compound 198, 2-chloro-N-[2-[5-methyl-3-[4-morpholino-2-[4-(m-tolyl)pyrazol-1-yl]furo[3,2-d]pyrimidin-6-yl]pyrazol-1-yl]ethyl]acetamide] the figure was 0.6 nM; with `Clc1cccc(-c2ccn(-c3nc(N4CCOCC4)c4oc(-c5ccccn5)cc4n3)n2)c1` [Compound 185, 2-[3-(3-chlorophenyl)pyrazol-1-yl]-4-morpholino-6-(2-pyridyl)furo[3,2-d]pyrimidine], 10.1 nM; with `c1ccc(-c2cnn(-c3nc(N4CCOCC4)c4oc(-c5cccnc5)cc4n3)c2)cc1` [Compound 160, 4-morpholino-2-(4-phenylpyrazol-1-yl)-6-(3-pyridyl)furo[3,2-d]pyrimidine], 61.7 nM.
In the case of `c1csc(-c2cc(Nc3nc(N4CCOCC4)c4oc(-c5ccncc5)cc4n3)[nH]n2)c1` [Compound 75, 4-morpholino-6-(pyridin-4-yl)-N-(5-(thiophen-2-yl)-1H-pyrazol-3-yl)furo[3,2-d]pyrimidin-2-amine, hydrogen chloride] it was 1.4 nM; in that of `Cc1cccc(-c2cnn(-c3nc(N4CCOCC4)c4oc(-c5cc(C)n(CCN6C(=O)C=CC6=O)n5)cc4n3)c2)c1` [Compound 202, 1-[2-[5-methyl-3-[4-morpholino-2-[4-(m-tolyl)pyrazol-1-yl]furo[3,2-d]pyrimidin-6-yl]pyrazol-1-yl]ethyl]pyrrole-2,5-dione], 1.4 nM; in that of `Cc1cccc(-c2cc(Nc3nc(N4CCOCC4)c4oc(-c5ccncc5)cc4n3)[nH]n2)n1` [Compound 20, N-[5-(6-methyl-2-pyridyl)-1H-pyrazol-3-yl]-4-morpholino-6-(4-pyridyl)furo[3,2-d]pyrimidin-2-amine, hydrogen chloride], 9 nM.
With `c1ccc(-c2nnc(Nc3nc(N4CCOCC4)c4oc(-c5ccncc5)cc4n3)o2)cc1` [Compound 47, 4-morpholino-N-(5-phenyl-1,3,4-oxadiazol-2-yl)-6-(4-pyridyl)furo[3,2-d]pyrimidin-2-amine, hydrogen chloride] the figure was 52 nM; with `O=C(NC1CCOCC1)c1cc2nc(-n3cc(-c4ccccc4)cn3)nc(N3CCOCC3)c2o1` [Compound 171, 4-morpholino-2-(4-phenylpyrazol-1-yl)-N-tetrahydropyran-4-yl-furo[3,2-d]pyrimidine-6-carboxamide], 39.2 nM; with `CNC(=O)c1cc2nc(Nc3cc(-c4cccs4)n[nH]3)nc(N3CCOCC3)c2o1` [Compound 85, N-methyl-4-morpholino-2-((5-(thiophen-2-yl)-1H-pyrazol-3-yl)amino)furo[3,2-d]pyrimidine-6-carboxamide, hydrogen chloride], 69 nM.
Regarding `c1cc(-c2cc(Nc3nc(N4CCOCC4)c4oc(-c5ccncc5)cc4n3)[nH]n2)ccn1` [Compound 6, 4-morpholino-6-(4-pyridyl)-N-[5-(4-pyridyl)-1H-pyrazol-3-yl]furo[3,2-d]pyrimidin-2-amine, hydrogen chloride], the 50% inhibitory concentration (IC50) worked out at 44.6 nM.
Consider `c1ccc(-n2ccc(Nc3nc(N4CCOCC4)c4oc(-c5ccncc5)cc4n3)n2)cc1` [Compound 48, 4-morpholino-N-(1-phenylpyrazol-3-yl)-6-(4-pyridyl)furo[3,2-d]pyrimidin-2-amine, hydrogen chloride], for which the IC50 was determined as 32 nM.
In the case of `Cn1cc(-c2cc3nc(-n4ccc(-c5ccccc5)n4)nc(N4CCOCC4)c3o2)cn1` [Compound 208, 6-(1-methylpyrazol-4-yl)-4-morpholino-2-(3-phenylpyrazol-1-yl)furo[3,2-d]pyrimidine] it was 8.2 nM.
As to `Cn1ccc(-c2cc3nc(-n4ccc(-c5cccc(Cl)c5)n4)nc(N4CCOCC4)c3o2)n1` [Compound 193, 2-[3-(3-chlorophenyl)pyrazol-1-yl]-6-(1-methylpyrazol-3-yl)-4-morpholino-furo[3,2-d]pyrimidine], the IC50 worked out at 24.6 nM.
With `c1ccc(-c2ccn(-c3nc(N4CCOCC4)c4oc(-c5ccccn5)cc4n3)n2)cc1` [Compound 155, 4-morpholino-2-(3-phenylpyrazol-1-yl)-6-(2-pyridyl)furo[3,2-d]pyrimidine] the figure was 70.6 nM; with `O=C(NCC1COC1)c1cc2nc(-n3cc(-c4ccccc4)cn3)nc(N3CCOCC3)c2o1` [Compound 164, 4-morpholino-N-(oxetan-3-ylmethyl)-2-(4-phenyipyrazol-1-yl)furo[3,2-d]pyrimidine-6-carboxamide], 162 nM.
With `c1ccc(-c2cc(Nc3nc(N4CCOCC4)c4occc4n3)n[nH]2)cc1` [Compound 142, 4-morpholino-N-(5-phenyl-1H-pyrazol-3-yl)furo[3,2-d]pyrimidin-2-amine] the figure was 145 nM; with `CNC(=O)c1cc2nc(Nc3cc(C(C)C)n[nH]3)nc(N3CCOCC3)c2o1` [Compound 88, 2-((5-isopropyl-1H-pyrazol-3-yl)amino)-N-methyl-4-morpholinofuro[3,2-d]pyrimidine-6-carboxamide, hydrogen chloride], 7400 nM.
With `C=CC(=O)NCCn1nc(-c2cc3nc(-n4cc(-c5cccc(C)c5)cn4)nc(N4CCOCC4)c3o2)cc1C` [Compound 196, N-[2-[5-methyl-3-[4-morpholino-2-[4-(m-tolyl)pyrazol-1-yl]furo[3,2-d]pyrimidin-6-yl]pyrazol-1-yl]ethyl]prop-2-enamide] the figure was 0.9 nM; with `Cn1ccc(-c2cc3nc(-n4ccc(Br)n4)nc(N4CCOCC4)c3o2)n1` [Compound 195, 2-(3-bromopyrazol-1-yl)-6-(1-methylpyrazol-3-yl)-4-morpholino-furo[3,2-d]pyrimidine], 907 nM.
Regarding `CCNC(=O)c1cc2nc(-n3cc(-c4cccc(C)c4)cn3)nc(N3CCOCC3=O)c2o1` [Compound 149, N-ethyl-2-[4-(m-tolyl)pyrazol-1-yl]-4-(3-oxomorpholin-4-yl)furo[3,2-d]pyrimidine-6-carboxamide], the half-inhibitory concentration (IC50) was > 20000 nM.
In the case of `CCN(C)C(=O)c1cc2nc(Nc3cc(-c4ccccc4)[nH]n3)nc(N3CCOCC3)c2o1` [Compound 57, N-ethyl-N-methyl-4-morpholino-2-[(5-phenyl-1H-pyrazol-3-yl)amino]furo[3,2-d]pyrimidine-6-carboxamide, hydrogen chloride], the IC50 was found to be 37 nM.
With `Cc1cccc(-c2ccn(-c3nc(N4CCOCC4)c4oc(-c5cnc(C)[nH]5)cc4n3)n2)c1` [Compound 212, 6-(2-methyl-1H-imidazol-5-yl)-4-morpholino-2-(3-(m-tolyl)-1H-pyrazol-1-yl)furo[3,2-d]pyrimidine], the concentration for half-maximal inhibition (IC50) amounted to 2.3 nM.
In the case of `O=C(c1cc2nc(-n3cc(-c4ccccc4)cn3)nc(N3CCOCC3)c2o1)N1CCC1` [Compound 67, azetidin-1-yl(4-morpholino-2-(4-phenyl-1H-pyrazol-1-yl)furo[3,2-d]pyrimidin-6-yl)methanone] it was 928 nM; in that of `CN1CCN(Cc2cc3nc(Nc4cc(-c5ccccc5)n[nH]4)nc(N4CCOCC4)c3o2)CC1` [Compound 15], 71 nM.

The term IC50 denotes the concentration at which inhibition is half-maximal.
